In article PMC6451765 (Journal of biomolecular structure & dynamics, 2013):

Biological target: 5-HT2B (Homo sapiens, UniProt P41595)
Type: binding

Sequence of 5-HT2B (P41595 whole entry): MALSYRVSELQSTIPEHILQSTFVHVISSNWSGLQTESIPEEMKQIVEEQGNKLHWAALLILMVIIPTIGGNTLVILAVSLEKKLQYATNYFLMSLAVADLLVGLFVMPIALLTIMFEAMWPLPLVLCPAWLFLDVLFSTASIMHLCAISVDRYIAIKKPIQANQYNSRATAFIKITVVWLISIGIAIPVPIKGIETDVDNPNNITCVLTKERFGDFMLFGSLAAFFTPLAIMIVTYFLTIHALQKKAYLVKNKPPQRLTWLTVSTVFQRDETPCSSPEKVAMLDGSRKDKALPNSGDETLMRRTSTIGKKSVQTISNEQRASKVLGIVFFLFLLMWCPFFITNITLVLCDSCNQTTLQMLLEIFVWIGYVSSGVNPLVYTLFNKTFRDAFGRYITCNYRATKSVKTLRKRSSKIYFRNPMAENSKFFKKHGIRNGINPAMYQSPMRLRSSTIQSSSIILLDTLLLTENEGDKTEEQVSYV

Structure (SMILES)	Ki [µM]
FC(F)OC(Cl)C(F)(F)F (centres unmarked) [I, isoflurane]	7.78
CC(C)c1cccc(C(C)C)c1O [P, propofol]	0.95
